The record followed here is US9850256B2, “Antibacterial basic biaromatic derivatives with aminoalkoxy substitution” (priority 2014, dated 2017).

Holding throughout (assay): Bacterial growth minimal inhibitory concentration (microdilution, cation-adjusted Mueller-Hinton Broth)
A general note: In broth dilution the organism is exposed to a series of concentrations in liquid medium.

Test [1] relates to S. aureus A798. Format: cell-based, Staphylococcus aureus. Particulars: Staphylococcus aureus, A798; multiply-resistant strain (methicillin- and quinolone-resistant). Summed up:
(§1)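 Broth microdilution in cation-adjusted Mueller-Hinton Broth per CLSI M7-A7; MICs in mg/L. S. aureus A798 is methicillin- and quinolone-resistant, K. pneumoniae T6474 penicillin-, cephalosporin- and quinolone-resistant; E. coli ATCC25922 and P. aeruginosa ATCC 27853 are quinolone-sensitive.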

In test [2] the test system is E. coli ATCC25922. Format: cell-based. Particulars: Escherichia coli, ATCC25922; quinolone-sensitive strain. Summed up: as §1
For test [3], the system named is P. aeruginosa ATCC 27853. Format: cell-based, Pseudomonas aeruginosa. The settings on record: Pseudomonas aeruginosa, ATCC27853; quinolone-sensitive strain. Summed up: as §1
For test [4], the system named is K. pneumoniae T6474. Format: cell-based, Klebsiella pneumoniae. The settings on record: Klebsiella pneumoniae, T6474; multiply-resistant strain (penicillin-, cephalosporin- and quinolone-resistant). Summed up: as §1

Each structure is given as a SMILES string. In brackets after ≈: the same amount, converted by molar mass. Bounds are passed on as bounds.

The term MIC denotes the lowest concentration found to suppress growth. Higher therefore signals weaker potency. For `O=C1COc2ccc(N3C[C@H](CCNCc4cccc(-c5cc(O[C@@H]6CCNC6)cnn5)c4)OC3=O)nc2N1` [Example $180, 6-[(S)-2-oxo-5-(2-{3-[5-((R)-pyrrolidin-3-yloxy)-pyridazin-3-yl]-benzylamino}-ethyl)-oxazolidin-3-yl]-4H-pyrido[3,2-b][1,4]oxazin-3-one], the MIC in test [1] was more than 16 µg/mL; in test [2], 16 µg/mL (≈ 30.1 µM); in test [3] it was 4 µg/mL (≈ 7.52 µM); in test [4] it was more than 16 µg/mL.

Regarding `O=C1COc2ccc(N3C[C@H](CCNCc4cccc(-c5cc(O[C@H]6CCNC6)cnn5)c4)OC3=O)nc2N1` [Example $181, 6-[(S)-2-oxo-5-(2-{3-[5-((S)-pyrrolidin-3-yloxy)-pyridazin-3-yl]-benzylamino}-ethyl)-oxazolidin-3-yl]-4H-pyrido[3,2-b][1,4]oxazin-3-one], the MIC was 16 µg/mL (≈ 30.1 µM) in test [1], 16 µg/mL (≈ 30.1 µM) in test [2], 4 µg/mL (≈ 7.52 µM) in test [3] and more than 16 µg/mL in test [4].

For the molecule `O=C1COc2ccc(N3C[C@H](CCNCc4cccc(-c5cc(OC[C@@H]6CCN6)cnn5)c4)OC3=O)nc2N1` [Example $182, 6-[(S)-5-(2-{3-[5-((S)-1-azetidin-2-ylmethoxy)-pyridazin-3-yl]-benzylamino}-ethyl)-2-oxo-oxazolidin-3-yl]-4H-pyrido[3,2-b][1,4]oxazin-3-one], the MIC in test [1] is 8 µg/mL (≈ 15 µM); in test [2], 16 µg/mL (≈ 30.1 µM); in test [3] it was 16 µg/mL (≈ 30.1 µM); in test [4], 16 µg/mL (≈ 30.1 µM).

On to `CN1CC(Oc2cccc(-c3cc(CNCC[C@H]4CN(c5ccc6c(n5)NC(=O)CO6)C(=O)O4)ccn3)n2)C1` [Example $185, 6-[(S)-5-(2-{[6′-(1-methyl-azetidin-3-yloxy)-[2,2′]bipyridinyl-4-ylmethyl]-amino}-ethyl)-2-oxo-oxazolidin-3-yl]-4H-pyrido[3,2-b][1,4]oxazin-3-one], for which the minimal inhibitory concentration (MIC) was determined as 0.125 µg/mL (≈ 0.235 µM) in test [1], 0.5 µg/mL (≈ 0.941 µM) in test [2], 1 µg/mL (≈ 1.88 µM) in test [3] and 0.5 µg/mL (≈ 0.941 µM) in test [4].

With `CN1CC(Oc2cccc(-c3ccnc(CNCC[C@H]4CN(c5ccc6c(n5)NC(=O)CO6)C(=O)O4)c3)n2)C1` [Example $186, 6-[(S)-5-(2-{[6-(1-methyl-azetidin-3-yloxy)-[2,4′]bipyridinyl-2′-ylmethyl]-amino}-ethyl)-2-oxo-oxazolidin-3-yl]-4H-pyrido[3,2-b][1,4]oxazin-3-one], the MIC amounted to 0.25 µg/mL (≈ 0.47 µM) in test [1], 0.5 µg/mL (≈ 0.941 µM) in test [2], 0.5 µg/mL (≈ 0.941 µM) in test [3] and 1 µg/mL (≈ 1.88 µM) in test [4].

For the molecule `CN1CC(Oc2cncc(-c3ccnc(CNCC[C@H]4CN(c5ccc6c(n5)NC(=O)CO6)C(=O)O4)c3)n2)C1` [Example $187, 6-{(S)-5-[2-({4-[6-(1-methyl-azetidin-3-yloxy)-pyrazin-2-yl]-pyridin-2-ylmethyl}-amino)-ethyl]-2-oxo-oxazolidin-3-yl}-4H-pyrido[3,2-b][1,4]oxazin-3-one], the MIC in test [1] stood at 0.5 µg/mL (≈ 0.939 µM); in test [2], 0.5 µg/mL (≈ 0.939 µM); in test [3] it was 0.5 µg/mL (≈ 0.939 µM); in test [4], 1 µg/mL (≈ 1.88 µM).

With `CN1CC(Oc2cccc(-c3cccc(CNCC[C@H]4CN(c5ccc6c(n5)NC(=O)CO6)C(=O)O4)n3)n2)C1` [Example $188, 6-[(S)-5-(2-{[6′-(1-methyl-azetidin-3-yloxy)-[2,2′]bipyridinyl-6-ylmethyl]-amino}-ethyl)-2-oxo-oxazolidin-3-yl]-4H-pyrido[3,2-b][1,4]oxazin-3-one], the MIC in test [1] stood at 1 µg/mL (≈ 1.88 µM); in test [2] it was 1 µg/mL (≈ 1.88 µM); in test [3], 4 µg/mL (≈ 7.52 µM); in test [4], 2 µg/mL (≈ 3.76 µM).

On to `CN1CC(Oc2cncc(-c3cc(CNCC[C@H]4CN(c5ccc6c(n5)NC(=O)CO6)C(=O)O4)ccn3)n2)C1` [Example $189, 6-{(S)-5-[2-({2-[6-(1-methyl-azetidin-3-yloxy)-pyrazin-2-yl]-pyridin-4-ylmethyl}-amino)-ethyl]-2-oxo-oxazolidin-3-yl}-4H-pyrido[3,2-b][1,4]oxazin-3-one], for which the MIC worked out at 0.25 µg/mL (≈ 0.469 µM) in test [1], 1 µg/mL (≈ 1.88 µM) in test [2], 2 µg/mL (≈ 3.76 µM) in test [3] and 1 µg/mL (≈ 1.88 µM) in test [4].

For `CN1CC(Oc2cncc(-c3cncc(CNCC[C@H]4CN(c5ccc6c(n5)NC(=O)CO6)C(=O)O4)c3)n2)C1` [Example $190, 6-{(S)-5-[2-({5-[6-(1-methyl-azetidin-3-yloxy)-pyrazin-2-yl]-pyridin-3-ylmethyl}-amino)-ethyl]-2-oxo-oxazolidin-3-yl}-4H-pyrido[3,2-b][1,4]oxazin-3-one], the MIC was determined as 4 µg/mL (≈ 7.51 µM) in test [1], 2 µg/mL (≈ 3.76 µM) in test [2], 4 µg/mL (≈ 7.51 µM) in test [3] and 4 µg/mL (≈ 7.51 µM) in test [4].
